Experiments:
[1] = system: patients with moderate to severe COPD; assay: Clinical study in COPD: dyspnea by transition dyspnea index (TDI) in subjects using LABA + ICS; assay type: in vivo, human
Experimental: A clinical study was conducted to determine the efficacy of ensifentrine in treating COPD compared with placebo. Ensifentrine was administered by nebulizer at a dose of 3 mg twice daily (BID) for 24 weeks. The study was a multicenter, randomized, double-blind, parallel group, placebo-controlled trial with around 800 patients and 5:3 randomization.
The study population included patients aged 40-80 years with moderate to severe COPD (FEV1 30%-70% p.n., FEV1/forced vital capacity (FVC) ratio<0.7, with mMRC≥2). The randomization stratified (a) the use of stable background maintenance LAMA or LABA therapy use (approx. 50% yes or no) and (b) cigarette smoking (current or former). Inhaled corticosteroid (ICS) maintenance therapy was permitted in up to 20% of patients under certain provisions.
Ensifentrine was studied for its ability to treat COPD in subjects using inhalable corticosteroids (ICS) while also using a LABA.

[2] = system: patients with moderate to severe COPD; assay: Clinical study in COPD: moderate/severe COPD exacerbations (rate ratio, time to first exacerbation); assay type: in vivo, human
Excerpt: A COPD exacerbation may be a moderate COPD exacerbation or a severe COPD exacerbation. A moderate exacerbation is defined as worsening symptoms of COPD (as defined hereinabove) requiring a minimum of three days of treatment with oral/systemic corticosteroids and/or antibiotics. A severe exacerbation is defined as worsening symptoms of COPD (as defined hereinabove) requiring in-patient hospitalization. In some embodiments, the pharmaceutical compositions provided herein reduce the severity of COPD exacerbations in a patient, and may be used in preventing severe COPD exacerbations in a subject. In some embodiments, pharmaceutical compositions reduce the severity of COPD exacerbations. In some embodiments, […]
Ensifentrine's ability to reduce the frequency and or severity of COPD exacerbations was studied in 1,549 subjects. Ensifentrine's ability to reduce the frequency and or severity of COPD exacerbations was assessed in various subgroup populations. In one part of the study, subjects were assessed based on whether they were diagnosed with mild or moderate COPD or severe or very severe COPD. […]
These subjects were also assessed for the time to first moderate/severe COPD exacerbation, as measured by a hazard ratio from a Cox model. […]

COc1cc2c(cc1OC)-c1c/c(=N\c3c(C)cc(C)cc3C)n(CCNC(N)=O)c(=O)n1CC2 [Ensifentrine, N-(2-{(2E)-9,10-dimethoxy-4-oxo-2-[(2,4,6-trimethylphenyl)imino]-6,7-dihydro-2H-pyrimido[6,1-a]isoquinolin-3(4H)-yl}ethyl)urea]
Transition Dyspnea Index, LS Mean ([1]; COPD medication LABA + ICS): 1.394 (0.4748) | Transition Dyspnea Index, Estimate (Ensi-Pla) ([1]; COPD medication LABA + ICS, difference ensifentrine minus placebo): 0.768 | Dyspnea compared to placebo ([1]; subjects taking LABA and ICS): exhibited improvements in dyspnea | Reductions in exacerbations ([2]; subjects with baseline blood eosinophil concentrations of greater than 150 cells/μL): Reductions in exacerbations were observed | Reductions in exacerbations ([2]; subjects with baseline blood eosinophil concentrations of less than or equal to 150 cells/μL): Reductions in exacerbations were observed

Reference: patent US20250249008A1, “PHARMACEUTICAL COMPOSITIONS OF ENSIFENTRINE FOR CHRONIC OBSTRUCTIVE PULMONARY DISEASE” (Verona Pharma PLC, priority 2024, published 2025)
